Laboratory results taken from patent US6570001B1, “Polynucleotides and their use for detecting resistance to streptogramin A or to streptogramin B and related compounds” (priority 1997, dated 2003).

Experiments:
[1] = test system: S. aureus recipient RN4220 transformants carrying recombinant plasmid pIP1717; assay: MICs by serial twofold dilutions in MHA, S. aureus RN4220 transformants carrying pIP1717 (vgaB); assay type: cell-based; conditions: S. aureus RN4220 transformants with pIP1717
Text: First, the 2.4 kb HindIII-Haelll fragment of pIP1675, which contains only 10 nucleotide from vatB, was inserted into plasmid pOX300, and the recombinant plasmid, pIP1717 (FIG. 1B), was introduced by electroporation into the S. aureus recipient, RN4220 (Kreiswirth et al., 1983). Plasmid pOX300, also named pOX7, (Dyke and Curnock, 1989), is a hybrid of pUC18 and pEl94ts and replicates in E. coli where it confers resistance to ampicillin and to erythromycin, and in S. aureus where only resistance to erythromycin is expressed. The S. aureus transformants selected on 10 μg/ml erythromycin were resistant to streptogramin A and related compounds (PIIA MICs=8-16 μg/ml). Thus, the 2.4-kb HindIII-HaeIII insert of pIP1717 (FIG. 1B) probably carried a streptogramin A resistance gene and was sequenced. The nucleotide (nucleotide) sequence of this fragment was determined by the dideoxy method (Sanger et al., 1977) with the reagents and the procedure recommended by the suppliers of the T^7 sequencing kit (Pharmacia International). Arrows indicate the direction and extent of each dideoxy-sequencing reaction. (FIG. 1B).
(§1) Minimal inhibitory concentrations (MICs) of antibiotics were determined by serial twofold dilutions of antibiotics in MHA (Ericson H. M. and S. C. Sherris, ActaPathol. Microbiol. Scand., 1971, Suppl. 217:Section B).

[2] = test system: S. aureus recipient strain RN4220 harboring pIP1714; assay: Susceptibility of S. aureus RN4220 transformant harboring pIP1714 (vatC, vgbB); assay type: cell-based; conditions: RN4220 transformant harboring pIP1714, selected on 10 μg/ml pristinamycin IIA
Experimental: The strain BM10711 harbored several plasmids including pIP1714 (5 kb). This plasmid was isolated by electroporation in a S. aureus recipient strain, RN4220. The transformant, harboring pIP1714, was selected on BHIA containing 10 μg/ml pristinamycin IIA.
Susceptibility to antimicrobial agents was determined with a disk diffusion assay and commercially available disks (Diagnostic Pasteur). Additional disks prepared in our laboratory contained streptogramin A (20 μg) or streptogramin B (40 μg).
as §1

[3] = test system: Staphylococcal strains resistant to streptogramins; conditions: staphylococci resistant to synergistic mixtures of A and B compounds / to A compounds (Allignet et al., 1996); cited from earlier work

| Compound | resistance phenotype [1] | resistance phenotype [2] | MIC [3] [µg/mL] |
| --- | --- | --- | --- |
| streptogramin A | resistant | conferred resistances |  |
| streptogramin B |  | conferred resistances |  |
| CC1=C\[C@@H](O)CC(=O)Cc2nc(co2)C(=O)N2CCC=C2C(=O)O[C@H](C(C)C)[C@H](C)/C=C/C(=O)NC\C=C\1 [PIIA, pristinamycin IIA] |  |  | ≥ 8 |
